Reference: patent US20230322785A1, “ADENOSINE A2A AND A2B RECEPTOR DUAL ANTAGONISTS FOR IMMUNO-ONCOLOGY” (Merck Sharp & Dohme LLC, priority 2020, published 2023)

Legend:
[1] = target: T1, human A2A adenosine receptor (Homo sapiens, UniProt P29274); experiment: A2A binding affinity, Method (A): radioligand filtration binding with [3H]SCH58261; conditions: membranes of HEK293 or CHO cells expressing the human receptor
T1 construct: expressed in transfected cells; host or cells: HEK293 or CHO cells
Source text: (§1) Method (A) describes the procedure used to measure A2A binding affinity using radioligand binding. Method (B) describes the procedure used to measure A2A binding affinity using SPA technology. The method used to measure A2B binding affinity is also described below. The method used to determine the A2A IC50 value reported for each compound in the table is indicated next to the reported value. The A2B IC50 value measured using the A2B binding affinity assay is shown in the table next to the compound under the corresponding A2A value.
The A2A receptor affinity binding assay measured the amount of binding of a tritiated ligand with high affinity for the A2A adenosine receptor to membranes made from HEK293 or CHO cells recombinantly expressing the human A2A adenosine receptor, in the presence of varying concentrations of a compound of the invention. The data were generated using either filtration binding or a homogenous scintillation proximity assay (SPA).
Method (A): Measurement of A2A Binding Affinity Using Radioligand Binding
148 µL (5 µg/mL) membranes (Perkin Elmer, Cat. No. RBHA2aM400UA) and 2 µL compounds of the invention to be tested (test compound) were transferred to individual wells of a 96-well polypropylene assay plate and incubated for 15 to 30 min at room temperature. [^3H] SCH58261 ((7-(2-phenylethyl)-5-amino-2-(2-furyl)-pyrazolo-[4,3-e]-1,2,4-triazolo[1,5-c]pyrimidine)) was diluted in assay buffer (50 mM Tris pH 7.4, 10 mM MgCl2, 0.005% Tween20) to a concentration of 4 nM and 50 µL transferred to each well of the assay plate. To define total and non-specific binding, wells containing 1% DMSO and 1 µM ZM241385 (Tocris Bioscience, Cat. No. 1036) respectively, were also included. The assay plate was incubated at room temperature for 60 min with agitation. Using a FilterMate Harvester® (Perkin Elmer), the contents of the assay plate were filtered through a UniFilter-96® PEI coated plate (Perkin Elmer Cat. No. 6005274 or 6005277). Filtering was achieved by aspirating the contents of the assay plate for 5 sec, then washing and aspirating the contents three times with ice-cooled wash buffer (50 mM Tris-HCl pH 7.4, 150 mM NaCl) and allowing the vacuum manifold to dry the plate for 30 sec. The filter plate was incubated for at least 1 h at 55° C. and allowed to dry. The bottom of the filter plate was sealed with backing tape. 40 µL Ultima Gold™ (Perkin Elmer, Cat. No. 6013329) was added to each well of the filter plate and the top of the plate was sealed with TopSeal-A PLUS® clear plate seal (Perkin Elmer, Cat. No. 6050185). The plate was incubated for at least 20 min, and then the amount of radioactivity remaining in each well was determined using a TopCount® (Perkin Elmer) scintillation counter. After normalization to total and non-specific binding, the percent effect at each compound concentration was calculated. The plot of percent effect versus the log of compound concentration was analyzed electronically using a 4-parameter logistic fit based on the Levenberg-Marquardt algorithm to generate IC50 values.

[2] = target: T2, human A2B adenosine receptor (Homo sapiens, UniProt P29275); experiment: A2B binding affinity, radioligand filtration binding assay; conditions: membranes of HEK293 cells expressing human A2B
T2 construct: purchased Perkin Elmer ES-013-C; host or cells: HEK293 cells
T2 sequence (P29275 1-332): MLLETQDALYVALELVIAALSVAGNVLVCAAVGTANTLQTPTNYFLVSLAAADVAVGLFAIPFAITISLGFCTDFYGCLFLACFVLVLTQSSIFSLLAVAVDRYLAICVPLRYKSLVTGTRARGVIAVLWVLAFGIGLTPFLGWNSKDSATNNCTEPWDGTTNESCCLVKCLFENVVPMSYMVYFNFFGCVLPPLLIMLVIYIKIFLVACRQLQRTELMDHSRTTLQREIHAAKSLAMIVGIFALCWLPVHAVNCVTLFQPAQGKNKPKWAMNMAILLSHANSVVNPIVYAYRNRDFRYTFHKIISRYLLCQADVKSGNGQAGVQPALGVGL
Source text: as §1
Measurement of A2B Binding Affinity
The reported affinity of the compounds of the invention for the human A2B adenosine receptor was determined experimentally using a radioligand filtration binding assay. This assay measures the amount of binding of a tritiated proprietary A2B receptor antagonist, in the presence and absence of a compound of the invention, to membranes made from HEK293 cells recombinantly expressing the human A2B adenosine receptor (Perkin Elmer, Cat. No. ES-013-C). […] 148 µL (135 µg/mL) membranes and 2 µL test compounds were transferred to individual wells of a 96-well polypropylene assay plate and incubated for 15 to 30 min at room temperature with agitation. Tritiated radioligand was diluted to a concentration of 14 nM in assay buffer (phosphate buffered saline without Magnesium and Calcium, pH 7.4; GE Healthcare Life Sciences, Cat. No. SH30256.01) and then 50 µL of the solution were transferred to each well of the assay plate. To define total and non-specific binding, wells containing 1% DMSO and 20 µM N-ethylcarboxamidoadenosine (Tocris Bioscience, Cat. No. 1691) respectively, were also included. The wells of the assay plate were incubated at room temperature for 60 min with agitation, then filtered using a FilterMate Harvester® (Perkin Elmer) or similar equipment through a UniFilter-96® PEI coated plate (Perkin Elmer Cat. No. 6005274 or 6005277). Filtering was achieved by aspirating the contents of the assay plate for 5 sec, then washing and aspirating the contents three times with ice-cooled wash buffer (assay buffer supplemented with 0.0025% Brij58) and allowing the vacuum manifold to dry the plate for 30 sec. The filter plate was incubated for at least 1 h at 55° C. and allowed to dry. The bottom of the filter plate was then sealed with backing tape. 40 µL Ultima Gold™ (Perkin Elmer, Cat. No. 6013329) was added to each well of the filter plate and the top of the plate was sealed with TopSeal-A PLUS® clear plate seal (Perkin Elmer, Cat. No. 6050185). The plates were then incubated for at least 20 min, and then the amount of radioactivity remaining in each well was determined using a TopCount® (Perkin Elmer) scintillation counter. After normalization to total and non-specific binding, the percent effect at each compound concentration was calculated. The plot of percent effect versus the log of compound concentration was analyzed electronically using a 4-parameter logistic fit based on the Levenberg-Marquardt algorithm to generate IC50 values.

T1 sequence (P29274 whole entry): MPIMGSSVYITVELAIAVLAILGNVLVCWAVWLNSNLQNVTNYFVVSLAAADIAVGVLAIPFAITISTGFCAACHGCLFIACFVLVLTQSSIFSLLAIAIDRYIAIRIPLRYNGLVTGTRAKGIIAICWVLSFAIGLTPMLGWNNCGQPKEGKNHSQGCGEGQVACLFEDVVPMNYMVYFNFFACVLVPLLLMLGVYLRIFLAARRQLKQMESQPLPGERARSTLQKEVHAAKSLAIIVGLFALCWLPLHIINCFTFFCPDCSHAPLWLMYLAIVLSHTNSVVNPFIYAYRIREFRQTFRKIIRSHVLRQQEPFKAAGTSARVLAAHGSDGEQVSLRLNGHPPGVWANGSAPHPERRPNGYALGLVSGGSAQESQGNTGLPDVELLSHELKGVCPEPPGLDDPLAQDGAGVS

Row | IC50 [1] [nM] | IC50 ([2]; value given with mark (A)) [nM] | IC50 ([2]; value printed with mark (B)) [nM] | Compound
1 | 0.5 | 21.2 |  | COc1cc(F)cc2c1nc(N)n1nc(CNCc3ccc(C(O)C(F)(F)F)cc3)nc21 (single isomer, unassigned) [Example 11.7A, (S or R)-1-(4-((((5-amino-9-fluoro-7-methoxy-[1,2,4]triazolo[1,5-c]quinazolin-2-yl)methyl)amino)methyl)phenyl)-2,2,2-trifluoroethan-1-ol]
2 | 0.5 | 14.7 |  | COc1cc(F)cc2c1nc(N)n1nc(CNCc3ccc(C(O)C(F)(F)F)cc3)nc21 (single isomer, unassigned) [Example 11.7B, (R or S)-1-(4-((((5-amino-9-fluoro-7-methoxy-[1,2,4]triazolo[1,5-c]quinazolin-2-yl)methyl)amino)methyl)phenyl)-2,2,2-trifluoroethan-1-ol]
3 | 0.8 | 11.3 |  | COc1cc(F)cc2c1nc(N)n1nc(CNCc3ccc(C(C)(O)C(F)(F)F)cc3)nc21 (single isomer, unassigned) [Example 11.8A, (S or R)-2-(4-((((5-amino-9-fluoro-7-methoxy-[1,2,4]triazolo[1,5-c]quinazolin-2-yl)methyl)amino)methyl)phenyl)-1,1,1-trifluoropropan-2-ol]
4 | 0.4 | 2.9 |  | COc1cc(F)cc2c1nc(N)n1nc(CNCc3ccc(C(C)(O)C(F)(F)F)cc3)nc21 (single isomer, unassigned) [Example 11.8B, (R or S)-2-(4-((((5-amino-9-fluoro-7-methoxy-[1,2,4]triazolo[1,5-c]quinazolin-2-yl)methyl)amino)methyl)phenyl)-1,1,1-trifluoropropan-2-ol]
5 | 0.1 |  | 1040 | COc1cccc2c1nc(N)n1nc(CNCc3cnn(C)c3)nc21 [Example 11.3, 7-methoxy-2-((((1-methyl-1H-pyrazol-4-yl)methyl)amino)methyl)-[1,2,4]triazolo[1,5-c]quinazolin-5-amine]
6 | 0.1 |  | 2.9 | COc1cc(F)cc2c1nc(N)n1nc(CNCc3ccc(C(C)(C)O)cc3)nc21 [Example 11.4, 2-(4-((((5-amino-9-fluoro-7-methoxy-[1,2,4]triazolo[1,5-c]quinazolin-2-yl)methyl)amino)methyl)phenyl)propan-2-ol]
7 | 0.2 | 1 |  | COc1cc(F)cc2c1nc(N)n1nc(CNCc3ccc(C(O)(C(F)(F)F)C(F)(F)F)cc3)nc21 [Example 11.5, 2-(4-((((5-amino-9-fluoro-7-methoxy-[1,2,4]triazolo[1,5-c]quinazolin-2-yl)methyl)amino)methyl)phenyl)-1,1,1,3,3,3-hexafluoropropan-2-ol]
8 | 0.3 | 3.7 |  | COc1cc(F)cc2c1nc(N)n1nc(CNCc3ccc(C(O)(C(F)F)C(F)F)cc3)nc21 [Example 11.6, 2-(4-((((5-amino-9-fluoro-7-methoxy-[1,2,4]triazolo[1,5-c]quinazolin-2-yl)methyl)amino)methyl)phenyl)-1,1,3,3-tetrafluoropropan-2-ol]
9 | 2.1 | 15.6 |  | COc1cc(F)cc2c1nc(N)n1nc(CNCc3ccc(S(N)(=O)=O)cc3)nc21 [Example 11.11, 4-((((5-amino-9-fluoro-7-methoxy-[1,2,4]triazolo[1,5-c]quinazolin-2-yl)methyl)amino)methyl)benzenesulfonamide]
10 | 0.6 | 116 |  | COc1cccc2c1nc(N)n1nc(CNS(=O)(=O)C3CC3)nc21 [Example 12.2, N-((5-amino-7-methoxy-[1,2,4]triazolo[1,5-c]quinazolin-2-yl)methyl)cyclopropanesulfonamide]
